{
  "source": "patent US20060100188A1",
  "about": "“Treatment methods” (priority 2004, published 2006)",
  "key": {"[1]": {"tested_on": "DAOY human glioma cells (high MGMT level)", "assay": "Colony formation assay, DAOY cells", "type": "cell-based", "details": "4-day cycle", "protocol": "(§1) As detailed below, DAOY human glioma cells (high MGMT level), A375 human melanoma cells (high MGMT level), and LOX human melanoma cells (low MGMT level) in in vitro colony formation assays were treated with different dosing schedules of TMZ. In brief, sub-confluent plates containing cells (DAOY, A375, or LOX) were trypsinized, then rinsed and suspended in appropriate culture medium before seeding in 6-well plates. Cells were incubated for 18-24 hours at 37° C. to allow cells to attach. Graded concentrations of TMZ or equivalent volumes of diluents were added in triplicate. Each pulse of TMZ lasted for 24 hours. For example, cells receiving continuous daily dosing of TMZ were treated with TMZ-containing medium every 24 hours throughout the cycle. Following the last pulse of TMZ in a cycle, TMZ-containing medium was removed and replaced with fresh medium without TMZ for the rest of the incubation period. Resulting colonies were stained with Crystal Violet solution and quantified using ImagePro plus software (Empire Imaging Systems, Inc. Asbury, N.J.)."}, "[2]": {"tested_on": "A375 human melanoma cells (high MGMT level)", "assay": "Colony formation assay, A375 cells", "type": "cell-based", "details": "4-day cycle", "protocol": "as §1"}, "[3]": {"tested_on": "LOX human melanoma cells (low MGMT level)", "assay": "Colony formation assay, LOX cells", "type": "cell-based", "protocol": "as §1\nIn the 4-day cycle, illustrated in FIG. 3A, TMZ was administered according to one of two different dosing schedules: (i) continuous daily dosing (Day 1-4); or (ii) single pulse dosing (Day 1); where the total amount of TMZ administered was 0, 16, 31, 62, or 124 μg.\nIn the 8-day cycle, illustrated in FIG. 3B, TMZ was administered according to one of three different dosing schedules: (i) continuous daily dosing (Day 1-8); (ii) dosing for 2 consecutive days (Day 1-2); or (ii) intermittent dosing for 2 days (Day 1, Day 5); where the total amount of TMZ administered was 0, 31, 62, 124, or 248 μg."}, "[4]": {"tested_on": "DAOY human glioma xenograft tumors", "assay": "DAOY human glioma xenograft tumor model", "type": "in vivo, nude mice", "details": "two 15-day cycles", "protocol": "(§2) In brief, female athymic nude mice or female SCID mice (4-6 week old) from Charles River Laboratories were maintained in a VAF-barrier facility. Animal procedures were performed in accordance with the rules set forth in the N.I.H. guide for the care and use of laboratory animals.\n(§3) DAOY human glioma cells (5×10^6), LOX human melanoma cells (5×10^5), and A375 human melanoma cells (5×10^6) were inoculated subcutaneously in the right flank of the animal (LOX in SCID mice; DAOY and A375 in nude mice). To facilitate in vivo growth, Matrigel was mixed with DAOY and A375 cells (50%) before inoculation. When tumor volumes were approximately 100 mm^3, animals were randomized and grouped (n=10). Tumor volumes and body weight were measured twice weekly using Labcat™ computer application (Innovative Programing Associates, N.J.). Tumor volumes were calculated by the formula (W×L×H)×π×⅙.\n(§4) TMZ was administered by intraperitoneal injections with 20% HPβCD (containing 1% DMSO) as vehicle. Mice bearing xenograft tumors of DAOY human glioma cells, a high MGMT level cell line, were treated with one of three different dosing schedules. In a 15-day cycle, under same total dose levels, mice received one of the following TMZ treatments: (i) day 1 through day 15; (ii) day 1 through day 5; or (iii) intermittently on day 1, 4, 7, 10, and 13. For all dosing schedules, three different dose levels (180, 270, and 405 mg/kg total) were used.\nFIG. 5A illustrates the mean tumor growth curves of DAOY human glioma xenograft tumors following TMZ treatment for two consecutive 15-day cycles of continuous daily dosing (Day 1-15 (first cycle), Day 16-30 (second cycle)); where the total dose of TMZ administered was 0, 360, 540, or 810 mg per kg (mpk). FIG. 5B illustrates the mean tumor growth curves of DAOY human glioma xenograft tumors following TMZ treatment for two consecutive 15-day cycles of dosing for 5 consecutive days (Day 1-5 (first cycle); Day 16-20 (second cycle)); where the total dose of TMZ administered was 0, 360, 540, or 810 mpk. FIG. 5C illustrates mean tumor growth curves of DAOY human glioma xenograft tumors following TMZ treatment for two consecutive 15-day cycles of intermittent dosing for 5 days (Day 1, 4, 7, 10, 13 (first cycle); Day 16, 19, 22, 25, 28 (second cycle)); where the total dose of TMZ administered was 0, 360, 540, or 810 mpk."}, "[5]": {"tested_on": "A375 human melanoma xenograft tumors", "assay": "A375 human melanoma xenograft tumor model", "type": "in vivo, nude mice", "details": "15-day cycle", "protocol": "as §2, §3, §4\nas §4, with “Mice” for “TMZ was administered by intraperitoneal injections with 20% HPβCD (containing 1% DMSO) as vehicle. Mice”, “A375” for “DAOY”, “melanoma” for “glioma”, “with” for “with one of”, “Similar to the schedules used for the DAOY model, in” for “In”"}, "[6]": {"tested_on": "LOX human melanoma xenograft tumors", "assay": "LOX human melanoma xenograft tumor model", "type": "in vivo, SCID mice", "details": "for % Inhibition compared to tumor treated with vehicle: 12-day cycle; for TGI: SCID mice, intermediate dose 72 mg/kg total", "protocol": "as §2, §3, §4\nMice bearing xenograft tumors of LOX human melanoma cells, a low MGMT level cell line, were treated with TMZ using two different schedules. The same total dose was administered evenly divided over the course of either: (i) 4 or (ii) 12 days. TMZ was administered through intraperitoneal injection using cumulative total dose levels of 36, 72 or 144 mg/kg.\nThe efficacy of TMZ was schedule dependent, with greater efficacy seen when dosing for 4 consecutive days."}},
  "data": [
    {"smiles": "Cn1nnc2c(C(N)=O)ncn2c1=O", "note": "[TMZ, 3,4-dihydro-3-methyl-4-oxoimidazo[5,1-d]-as-tetrazine-8-carboxamide]", "values": [
      {"measurement": "% Inhibition compared to untreated cells", "setting": "[1]; continuous daily dosing Day 1-4 (¼ total TMZ/day), total TMZ 93 μg", "result": "−8", "unit": "%"},
      {"measurement": "% Inhibition compared to untreated cells", "setting": "[1]; single pulse dosing Day 1, total TMZ 93 μg", "result": "−37", "unit": "%"},
      {"measurement": "% Inhibition compared to untreated cells", "setting": "[1]; single pulse dosing Day 1, total TMZ 186 μg", "result": 20, "unit": "%"},
      {"measurement": "% Inhibition compared to untreated cells", "setting": "[1]; single pulse dosing Day 1, total TMZ 373 μg", "result": 75, "unit": "%"},
      {"measurement": "% Inhibition compared to untreated cells", "setting": "[2]; continuous daily dosing Day 1-4 (¼ total TMZ/day), total TMZ 62 μg", "result": 17.4, "unit": "%"},
      {"measurement": "% Inhibition compared to untreated cells", "setting": "[2]; single pulse dosing Day 1, total TMZ 62 μg", "result": 76, "unit": "%"},
      {"measurement": "% Inhibition compared to untreated cells", "setting": "[2]; single pulse dosing Day 1, total TMZ 124 μg", "result": 88, "unit": "%"},
      {"measurement": "% Inhibition compared to untreated cells", "setting": "[2]; single pulse dosing Day 1, total TMZ 249 μg", "result": 96, "unit": "%"},
      {"measurement": "% Inhibition compared to untreated cells", "setting": "[3]; 4-day cycle, continuous daily dosing Day 1-4 (¼ total TMZ/day), total TMZ 16 μg", "result": 7, "unit": "%"},
      {"measurement": "% Inhibition compared to untreated cells", "setting": "[3]; 4-day cycle, single pulse dosing Day 1, total TMZ 16 μg", "result": 66, "unit": "%"},
      {"measurement": "% Inhibition compared to untreated cells", "setting": "[3]; 4-day cycle, single pulse dosing Day 1, total TMZ 31 μg", "result": 87, "unit": "%"},
      {"measurement": "% Inhibition compared to untreated cells", "setting": "[3]; 4-day cycle, single pulse dosing Day 1, total TMZ 62 μg", "result": 84, "unit": "%"},
      {"measurement": "% Inhibition compared to untreated cells", "setting": "[3]; 8-day cycle, continuous daily dosing Day 1-8 (⅛ total TMZ/day), total TMZ 31 μg", "result": "−5", "unit": "%"},
      {"measurement": "% Inhibition compared to untreated cells", "setting": "[3]; 8-day cycle, dosing for 2 consecutive days Day 1, Day 2 (½ total TMZ/day), total TMZ 31 μg", "result": 45, "unit": "%"},
      {"measurement": "% Inhibition compared to untreated cells", "setting": "[3]; 8-day cycle, dosing for 2 consecutive days Day 1, Day 2 (½ total TMZ/day), total TMZ 62 μg", "result": 92, "unit": "%"},
      {"measurement": "% Inhibition compared to untreated cells", "setting": "[3]; 8-day cycle, dosing for 2 consecutive days Day 1, Day 2 (½ total TMZ/day), total TMZ 124 μg", "result": 98, "unit": "%"},
      {"measurement": "% Inhibition compared to untreated cells", "setting": "[3]; 8-day cycle, intermittent dosing for 2 days Day 1, Day 5 (½ total TMZ/day), total TMZ 31 μg", "result": 78, "unit": "%"},
      {"measurement": "% Inhibition compared to untreated cells", "setting": "[3]; 8-day cycle, intermittent dosing for 2 days Day 1, Day 5 (½ total TMZ/day), total TMZ 62 μg", "result": 98, "unit": "%"},
      {"measurement": "% Inhibition compared to untreated cells", "setting": "[3]; 8-day cycle, intermittent dosing for 2 days Day 1, Day 5 (½ total TMZ/day), total TMZ 124 μg", "result": 99, "unit": "%"},
      {"measurement": "% Inhibition compared to tumor treated with vehicle", "setting": "[4]; continuous dosing Day 1-30, 12 mpk per pulse, total 360 mpk, dose intensity 1, i.p.", "result": 66, "unit": "%"},
      {"measurement": "% Inhibition compared to tumor treated with vehicle", "setting": "[4]; dosing for 5 consecutive days Day 1-5, Day 16-20, 54 mpk per pulse, total 540 mpk, dose intensity 1.5, i.p.", "result": 118, "unit": "%"},
      {"measurement": "% Inhibition compared to tumor treated with vehicle", "setting": "[4]; dosing for 5 consecutive days Day 1-5, Day 16-20, 81 mpk per pulse, total 810 mpk, dose intensity 2.25, i.p.", "result": 124, "unit": "%"},
      {"measurement": "% Inhibition compared to tumor treated with vehicle", "setting": "[4]; intermittent dosing Day 1, 4, 7, 10, 13, 16, 19, 22, 25, 28, 54 mpk per pulse, total 540 mpk, dose intensity 1.5, i.p.", "result": 85, "unit": "%"},
      {"measurement": "% Inhibition compared to tumor treated with vehicle", "setting": "[4]; intermittent dosing Day 1, 4, 7, 10, 13, 16, 19, 22, 25, 28, 81 mpk per pulse, total 810 mpk, dose intensity 2.25, i.p.", "result": 117, "unit": "%"},
      {"measurement": "% Inhibition compared to tumor treated with vehicle", "setting": "[5]; continuous daily dosing Day 1-15, 12 mpk per pulse, total 180 mpk, dose intensity 1, i.p.", "result": 34, "unit": "%"},
      {"measurement": "% Inhibition compared to tumor treated with vehicle", "setting": "[5]; dosing for 5 consecutive days Day 1-5, 54 mpk per pulse, total 270 mpk, dose intensity 1.5, i.p.", "result": 29, "unit": "%"},
      {"measurement": "% Inhibition compared to tumor treated with vehicle", "setting": "[5]; dosing for 5 consecutive days Day 1-5, 81 mpk per pulse, total 405 mpk, dose intensity 2.25, i.p.", "result": 68, "unit": "%"},
      {"measurement": "% Inhibition compared to tumor treated with vehicle", "setting": "[5]; intermittent dosing Day 1, 4, 7, 10, 13, 54 mpk per pulse, total 270 mpk, dose intensity 1.5, i.p.", "result": 58, "unit": "%"},
      {"measurement": "% Inhibition compared to tumor treated with vehicle", "setting": "[5]; intermittent dosing Day 1, 4, 7, 10, 13, 81 mpk per pulse, total 405 mpk, dose intensity 2.25, i.p.", "result": 73, "unit": "%"},
      {"measurement": "% Inhibition compared to tumor treated with vehicle", "setting": "[6]; continuous daily dosing Day 1-12, 3 mpk per pulse, total 36 mpk, dose intensity 1, i.p.", "result": 37, "unit": "%"},
      {"measurement": "% Inhibition compared to tumor treated with vehicle", "setting": "[6]; dosing for 4 consecutive days Day 1-4, 18 mpk per pulse, total 72 mpk, dose intensity 2, i.p.", "result": 88, "unit": "%"},
      {"measurement": "% Inhibition compared to tumor treated with vehicle", "setting": "[6]; dosing for 4 consecutive days Day 1-4, 36 mpk per pulse, total 144 mpk, dose intensity 4, i.p.", "result": 94, "unit": "%"},
      {"measurement": "TGI", "setting": "[6]; 4-day treatment schedule", "result": 88, "unit": "%"},
      {"measurement": "TGI", "setting": "[6]; 12-day schedule", "result": 50, "unit": "%"}
    ]}
  ]
}
